Experimental findings from PMC4085797, “Synthetic Inositol Phosphate Analogs Reveal that PPIP5K2 Has a Surface-Mounted Substrate Capture Site that Is a Target for Drug Discovery” (Chemistry & Biology, 2014) are described below.

Numbering of substitutions follows the chain as printed.

Common to all, as to type: biochemical
Assay [1] addresses T1, PPIP5K2^KD H194A mutant (Homo sapiens, UniProt O43314, H194A).
T1 construct: The kinase domain of human PPIP5K2 (PPIP5K2^KD; residues 1–366); made in house
T1 sequence (O43314 1-366 H194A): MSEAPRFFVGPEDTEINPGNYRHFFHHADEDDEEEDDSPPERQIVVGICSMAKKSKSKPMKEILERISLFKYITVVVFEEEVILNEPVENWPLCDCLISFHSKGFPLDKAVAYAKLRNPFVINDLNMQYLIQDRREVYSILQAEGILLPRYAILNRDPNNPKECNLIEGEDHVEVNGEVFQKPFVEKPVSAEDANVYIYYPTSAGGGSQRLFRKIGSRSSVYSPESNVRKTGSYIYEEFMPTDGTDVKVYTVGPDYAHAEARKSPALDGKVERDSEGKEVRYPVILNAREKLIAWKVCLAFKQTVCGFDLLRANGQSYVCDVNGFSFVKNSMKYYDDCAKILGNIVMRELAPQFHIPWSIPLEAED
In words: ATPase activity of H194A mutant. The following applies: data not shown. The protocol: (§1) The initial InsP6 concentration was either 500 nM, 70 nM, or 40 nM. Various concentrations of 2,5-di-O-Bn-InsP4 were present as indicated. Radioactivity was assessed using an in-line Flo1 detector. The ADP-driven dephosphorylation of 100 nM 1,5-[PP]2-InsP4 by PPIP5K2^KD was usually determined by a luminescence-based assay of ATP accumulation ([Riley et al., 2012; Weaver et al., 2013]). The IC50 values were determined using GraphPad Prism v6.02 (n ≥ 3). In some experiments, 1,5-[PP]2-[^3H]InsP4 dephosphorylation by PPIP5K2^KD was assayed in 50 μl buffer containing 50 mM KCl, 20 mM HEPES pH 7.0, 7 mM MgSO4, 5 mM ADP, 1 mM EDTA. Reactions were then quenched, neutralized, and analyzed with HPLC using a Partisphere SAX column ([Weaver et al., 2013]); 1 ml fractions were collected for liquid scintillation spectrometry. The ATPase activity of PPIP5K2^KD (10–270 μg/ml) was assayed from Pi release following incubation at 37°C for 120–180 min in 20 μl reaction mixtures containing 20 mM Tris/HCl, pH 7.5, 10 mM ATP, 100 mM KCl, 0.1 mM EDTA, and 13 mM MgCl2.

In assay [2] the target is T2, PPIP5K2^KD K54A mutant (Homo sapiens, UniProt O43314, K54A).
T2 construct: The kinase domain of human PPIP5K2 (PPIP5K2^KD; residues 1–366); made in house
T2 sequence (O43314 1-366 K54A): T1 sequence (O43314 1-366 H194A) with K54A, A194H
The experiment in a line: ATPase activity of K54A mutant. The following applies: Figures 7B and 7C. As to the method: as §1
(§2) Protein Expression, Purification, Crystallization and Structure Determination […]
(§3) The structure was further manually rebuilt with COOT and refined with PHENIX and
(§4) REFMAC from the CCP4 package. Ligand topology and parameter files were prepared using
(§5) the PRODRG server. The molecular graphics representations were prepared with the program […]

In assay [3] the target is T3, PPIP5K2^KD K103A mutant (Homo sapiens, UniProt O43314, K103A).
T3 construct: The kinase domain of human PPIP5K2 (PPIP5K2^KD; residues 1–366); made in house
T3 sequence (O43314 1-366 K103A): T1 sequence (O43314 1-366 H194A) with K103A, A194H
The experiment in a line: ATPase activity of K103A mutant. The following applies: Figures 7B and 7C. As to the method: as §1, §2, §3, §4, §5

Assay [4] concerns the target T4, PPIP5K2^KD E192Q mutant (Homo sapiens, UniProt O43314, E192Q).
T4 construct: The kinase domain of human PPIP5K2 (PPIP5K2^KD; residues 1–366); made in house
T4 sequence (O43314 1-366 E192Q): T1 sequence (O43314 1-366 H194A) with E192Q, A194H
In words: ATPase activity of E192Q mutant. The following applies: 25 μM, Figure 7E. As to the method: as §1
Protein Expression, Purification, Crystallization and Structure Determination
Full-length human IP6K2, the kinase domain of human PPIP5K2 (PPIP5K2KD; residues 1-
366), and the N-terminally truncated domain used for the crystallography studies (residues
41-366) were all sub-cloned, expressed and purified as before (Wang et al., 2012; Weaver et
al., 2013). […]
as §3, §4
the PRODRG server. The molecular graphics representations were prepared with the program
PyMol (Schrödinger, LLC). The 2D ligand-protein interaction diagrams were generated by
LigPlot+. Atomic coordinates and structure factors have been deposited with the Protein Data
Bank with accession codes: 4NZM, 4NZN, 4NZO.
Mutants were generated using a site-directed mutagenesis kit (Stratagene). Pairs of complementary
primers were designed as shown below, with mutagenic primers underlined (only 5’ primers are […]

With `O=P(O)(O)O[C@@H]1[C@@H](OCc2ccccc2)[C@H](OP(=O)(O)O)[C@@H](OP(=O)(O)O)[C@@H](OCc2ccccc2)[C@H]1OP(=O)(O)O` [compound 10, 2,5-di-O-Bn-InsP4], the “ATPase activity in the presence of analog (in words)” value in assay [1] is given as “did not exhibit any detectable ATPase activity”. In assay [2], the “stimulation of ATPase activity vs wild-type (in words)” value is recorded as “substantially impaired degree of stimulation”. The “analog-activated ATPase activity compared to wild-type enzyme (in words)” value in assay [3] is listed as “only a slight reduction”. Further, the “rate of ligand-stimulated ATPase activity vs wild-type (in words)” value in assay [4] is “neither of these particular mutations altered the rate”.
As to `O=C(CP(=O)(O)O)O[C@@H]1[C@@H](OP(=O)(O)O)[C@H](OP(=O)(O)O)[C@H](OCc2ccccc2)[C@H](OP(=O)(O)O)[C@H]1OP(=O)(O)O` [compound 2, 2-O-benzyl-5-O-α-phosphonoacetyl-myo-inositol 1,3,4,6-tetrakisphosphate], the “ATPase activity in the presence of analog (in words)” value in assay [1] was “did not exhibit any detectable ATPase activity”. The “stimulation of ATPase activity vs wild-type (in words)” value in assay [2] is on record as “substantially impaired degree of stimulation”. For the same compound, in assay [3], the “analog-activated ATPase activity compared to wild-type enzyme (in words)” value is given as “only a slight reduction”. The “rate of ligand-stimulated ATPase activity vs wild-type (in words)” value in assay [4] is on record as “neither of these particular mutations altered the rate”.
